Measurements taken from ChEMBL document CHEMBL2331514, “Structure-based design and synthesis of novel pseudosaccharine derivatives as antiproliferative agents and kinase inhibitors” (Eur J Med Chem, 2013).

Tests used:
OVCAR-3 = assay: Cytotoxicity against human OVCAR3 cells assessed as growth inhibition at 10 uM after 48 hrs by SRB assay; assay type: functional; details: OVCAR-3, 48 h, read-out: GI
IGROV-1 = assay: Cytotoxicity against human IGROV1 cells assessed as growth inhibition at 10 uM after 48 hrs by SRB assay; assay type: functional; details: IGROV-1, 48 h, read-out: GI
A498 = assay: Cytotoxicity against human A498 cells assessed as growth inhibition at 10 uM after 48 hrs by SRB assay; assay type: functional; details: A498, 48 h, read-out: GI
[1] = Cytotoxicity against human EKVX cells assessed as growth inhibition at 10 uM after 48 hrs by SRB assay; assay type: functional; details: read-out: GI
UACC-62 = assay: Cytotoxicity against human UACC62 cells assessed as growth inhibition at 10 uM after 48 hrs by SRB assay; assay type: functional; details: UACC-62, 48 h, read-out: GI
HCT-15 = assay: Cytotoxicity against human HCT15 cells assessed as growth inhibition at 10 uM after 48 hrs by SRB assay; assay type: functional; details: HCT-15, 48 h, read-out: GI
ACHN = assay: Cytotoxicity against human ACHN cells assessed as growth inhibition at 10 uM after 48 hrs by SRB assay; assay type: functional; details: read-out: GI
MCF7 = assay: Cytotoxicity against human MCF7 cells assessed as growth inhibition at 10 uM after 48 hrs by SRB assay; assay type: functional; details: MCF7, 48 h, read-out: GI
DU-145 = assay: Cytotoxicity against human DU145 cells assessed as growth inhibition at 10 uM after 48 hrs by SRB assay; assay type: functional; details: DU-145, 48 h, read-out: GI
UO-31 = assay: Cytotoxicity against human UO31 cells assessed as growth inhibition at 10 uM after 48 hrs by SRB assay; assay type: functional; details: UO-31, 48 h, read-out: GI
HCT-116 = assay: Cytotoxicity against human HCT116 cells assessed as growth inhibition at 10 uM after 48 hrs by SRB assay; assay type: functional; details: HCT-116, 48 h, read-out: GI
M14 = assay: Cytotoxicity against human M14 cells assessed as growth inhibition at 10 uM after 48 hrs by SRB assay; assay type: functional; details: M14, 48 h, read-out: GI
SK-MEL-5 = assay: Cytotoxicity against human SK-MEL-5 cells assessed as growth inhibition at 10 uM after 48 hrs by SRB assay; assay type: functional; details: SK-MEL-5, 48 h, read-out: GI
HOP-92 = assay: Cytotoxicity against human HOP92 cells assessed as growth inhibition at 10 uM after 48 hrs by SRB assay; assay type: functional; details: HOP-92, 48 h, read-out: GI
[2] = Partition coefficient, log P of the compound; assay type: physicochemical; details: octanol/water
BT-549 = assay: Cytotoxicity against human BT549 cells assessed as growth inhibition at 10 uM after 48 hrs by SRB assay; assay type: functional; details: BT-549, 48 h, read-out: GI
LOX IMVI = assay: Cytotoxicity against human LOXIMVI cells assessed as growth inhibition at 10 uM after 48 hrs by SRB assay; assay type: functional; details: read-out: GI
MDA-MB-435 = assay: Cytotoxicity against human MDA-MB-435 cells assessed as growth inhibition at 10 uM after 48 hrs by SRB assay; assay type: functional; details: MDA-MB-435, 48 h, read-out: GI
SF-539 = assay: Cytotoxicity against human SF539 cells assessed as growth inhibition at 10 uM after 48 hrs by SRB assay; assay type: functional; details: SF-539, 48 h, read-out: GI
CAKI-1 = assay: Cytotoxicity against human Caki1 cells assessed as growth inhibition at 10 uM after 48 hrs by SRB assay; assay type: functional; details: CAKI-1, 48 h, read-out: GI
SK-MEL-28 = assay: Cytotoxicity against human SK-MEL-28 cells assessed as growth inhibition at 10 uM after 48 hrs by SRB assay; assay type: functional; details: SK-MEL-28, 48 h, read-out: GI
OVCAR-8 = assay: Cytotoxicity against human OVCAR8 cells assessed as growth inhibition at 10 uM after 48 hrs by SRB assay; assay type: functional; details: OVCAR-8, 48 h, read-out: GI
MOLT-4 = assay: Cytotoxicity against human MOLT4 cells assessed as growth inhibition at 10 uM after 48 hrs by SRB assay; assay type: functional; details: MOLT-4, 48 h, read-out: GI
786-0 = assay: Cytotoxicity against human 786-0 cells assessed as growth inhibition at 10 uM after 48 hrs by SRB assay; assay type: functional; details: 786-0, 48 h, read-out: GI
NCI-H226 = assay: Cytotoxicity against human NCI-H226 cells assessed as growth inhibition at 10 uM after 48 hrs by SRB assay; assay type: functional; details: NCI-H226, 48 h, read-out: GI
OVCAR-5 = assay: Cytotoxicity against human OVCAR5 cells assessed as growth inhibition at 10 uM after 48 hrs by SRB assay; assay type: functional; details: OVCAR-5, 48 h, read-out: GI
T47D = assay: Cytotoxicity against human T47D cells assessed as growth inhibition at 10 uM after 48 hrs by SRB assay; assay type: functional; details: read-out: GI
RXF 393 = assay: Cytotoxicity against human RXF393 cells assessed as growth inhibition at 10 uM after 48 hrs by SRB assay; assay type: functional; details: RXF 393, 48 h, read-out: GI
[3] = Cytotoxicity against human NCI-ADR-RES cells assessed as growth inhibition at 10 uM after 48 hrs by SRB assay; assay type: functional; details: read-out: GI
PC-3 = assay: Cytotoxicity against human PC3 cells assessed as growth inhibition at 10 uM after 48 hrs by SRB assay; assay type: functional; details: PC-3, 48 h, read-out: GI
HL-60(TB) = assay: Cytotoxicity against human HL-60(TB) cells assessed as growth inhibition at 10 uM after 48 hrs by SRB assay; assay type: functional; details: HL-60, 48 h, read-out: GI
UACC-257 = assay: Cytotoxicity against human UACC257 cells assessed as growth inhibition at 10 uM after 48 hrs by SRB assay; assay type: functional; details: UACC-257, 48 h, read-out: GI
Malme-3M = assay: Cytotoxicity against human MALME-3M cells assessed as growth inhibition at 10 uM after 48 hrs by SRB assay; assay type: functional; details: read-out: GI
MDA-MB-231 = assay: Cytotoxicity against human MDA-MB-231 cells assessed as growth inhibition at 10 uM after 48 hrs by SRB assay; assay type: functional; details: MDA-MB-231, 48 h, read-out: GI
HOP-62 = assay: Cytotoxicity against human HOP62 cells assessed as growth inhibition at 10 uM after 48 hrs by SRB assay; assay type: functional; details: HOP-62, 48 h, read-out: GI
SF-268 = assay: Cytotoxicity against human SF268 cells assessed as growth inhibition at 10 uM after 48 hrs by SRB assay; assay type: functional; details: SF-268, 48 h, read-out: GI
COLO 205 = assay: Cytotoxicity against human COLO205 cells assessed as growth inhibition at 10 uM after 48 hrs by SRB assay; assay type: functional; details: COLO 205, 48 h, read-out: GI
HCC 2998 = assay: Cytotoxicity against human HCC2998 cells assessed as growth inhibition at 10 uM after 48 hrs by SRB assay; assay type: functional; details: HCC 2998, 48 h, read-out: GI

Row | Compound | inhibition of growth at 10 µM (OVCAR-3) [%] | inhibition of growth at 10 µM (IGROV-1) [%] | inhibition of growth at 10 µM (A498) [%] | inhibition of growth at 10 µM [1] [%] | inhibition of growth at 10 µM (UACC-62) [%] | inhibition of growth at 10 µM (HCT-15) [%] | inhibition of growth at 10 µM (ACHN) [%] | inhibition of growth at 10 µM (MCF7) [%] | inhibition of growth at 10 µM (DU-145) [%] | inhibition of growth at 10 µM (UO-31) [%] | inhibition of growth at 10 µM (HCT-116) [%] | inhibition of growth at 10 µM (M14) [%] | inhibition of growth at 10 µM (SK-MEL-5) [%] | inhibition of growth at 10 µM (HOP-92) [%] | logP [2] | inhibition of growth at 10 µM (BT-549) [%] | inhibition of growth at 10 µM (LOX IMVI) [%] | inhibition of growth at 10 µM (MDA-MB-435) [%] | inhibition of growth at 10 µM (SF-539) [%] | inhibition of growth at 10 µM (CAKI-1) [%] | also measured
1 | O=C(Nc1ccccc1)Nc1ccc(NC2=NS(=O)(=O)c3ccccc32)cc1 | -11 | -14 | 16 | 0 | -7 | -7 | -8 | 10 | -1 | 7 | -6 | -3 | 6 | 1 | 2.23 | 3 | 2 | 0 | 5 | 2 | inhibition of growth at 10 µM (SK-MEL-28): -10%; inhibition of growth at 10 µM (OVCAR-8): -5%; inhibition of growth at 10 µM (MOLT-4): 4%; inhibition of growth at 10 µM (786-0): 3%; inhibition of growth at 10 µM (NCI-H226): 10%; inhibition of growth at 10 µM (OVCAR-5): -2%; inhibition of growth at 10 µM (T47D): 10%; inhibition of growth at 10 µM (RXF 393): -6%; inhibition of growth at 10 µM [3]: -2%; inhibition of growth at 10 µM (PC-3): -3%; inhibition of growth at 10 µM (HL-60(TB)): 5%; inhibition of growth at 10 µM (UACC-257): -1%; inhibition of growth at 10 µM (Malme-3M): -1%; inhibition of growth at 10 µM (MDA-MB-231): 11%; inhibition of growth at 10 µM (HOP-62): -11%; inhibition of growth at 10 µM (SF-268): -1%; inhibition of growth at 10 µM (COLO 205): -19%; inhibition of growth at 10 µM (HCC 2998): -7%
2 | O=C(Nc1ccc(OC2=NS(=O)(=O)c3ccccc32)cc1)Nc1ccccc1Cl | 3 | 0 | 5 | -3 | 16 | 8 | 21 | 23 | 3 | 33 | 1 | 2 | 9 | -3 | 3.55 | 22 | 15 | 5 | 6 | 6 | inhibition of growth at 10 µM (SK-MEL-28): -8%; inhibition of growth at 10 µM (OVCAR-8): 1%; inhibition of growth at 10 µM (MOLT-4): 24%; inhibition of growth at 10 µM (786-0): 11%; inhibition of growth at 10 µM (NCI-H226): 25%; inhibition of growth at 10 µM (OVCAR-5): 3%; inhibition of growth at 10 µM (T47D): 8%; inhibition of growth at 10 µM (RXF 393): 10%; inhibition of growth at 10 µM [3]: 13%; inhibition of growth at 10 µM (PC-3): 9%; inhibition of growth at 10 µM (HL-60(TB)): 25%; inhibition of growth at 10 µM (UACC-257): -17%; inhibition of growth at 10 µM (Malme-3M): 2%; inhibition of growth at 10 µM (MDA-MB-231): 63%; inhibition of growth at 10 µM (HOP-62): -8%; inhibition of growth at 10 µM (SF-268): 14%; inhibition of growth at 10 µM (COLO 205): -17%; inhibition of growth at 10 µM (HCC 2998): -5%
